In patent US9127016B2, “Small molecule inhibitors of Dusp6 and uses therefor” (University of Pittsburgh—Of the Commonwealth System of …, priority 2009, dated 2015):

Tests used:
human Dusp1 = molecular target: T1, human Dusp1 (Homo sapiens, UniProt P28562); assay: Chemical complementation assay in HeLa cells, pERK restoration, Dusp1-Myc; format: cell-based; details: TPA stimulated
T1 construct: expressed in transfected cells; host or cells: HeLa cells, pcDNA3.1, FuGene 6
T1 sequence (P28562 1-367): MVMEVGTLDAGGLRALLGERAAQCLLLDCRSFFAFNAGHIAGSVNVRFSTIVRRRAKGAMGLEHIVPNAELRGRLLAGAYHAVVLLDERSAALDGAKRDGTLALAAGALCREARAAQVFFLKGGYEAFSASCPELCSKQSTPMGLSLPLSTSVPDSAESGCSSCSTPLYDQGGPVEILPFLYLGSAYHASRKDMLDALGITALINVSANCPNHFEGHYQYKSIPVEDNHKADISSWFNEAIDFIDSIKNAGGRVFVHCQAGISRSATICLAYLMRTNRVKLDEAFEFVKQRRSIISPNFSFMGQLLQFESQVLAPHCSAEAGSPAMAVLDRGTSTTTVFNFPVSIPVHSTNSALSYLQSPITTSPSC
Experimental: These experiments were carried out essentially as described26. HeLa cells were obtained from ATCC (Manassas, Va.) and maintained in a humidified atmosphere of 5% CO2 at 37° C., Dulbecco's […] (DMEM) supplemented with 10% fetal bovine serum (FBS, HyClone, Logan, Utah), and 1% penicillin-streptomycin (Life Technologies, Inc., Rockville, Md.). c-Myc-Dusp6 and c-Myc-Dusp1 (also known as CL100) (kindly provided by Dr. Stephen Keyse, University of Dundee) were subcloned into pcDNA3.1 for ectopic expression in mammalian cells50. […] Plates were analyzed by three-channel multiparametric analysis for p-ERK and c-Myc-DUSP intensities in an area defined by nuclear staining using the Compartmental Analysis Bioapplication on an ArrayScan II high-content reader (Cellomics, Pittsburgh, Pa.). Restoration of ERK phosphorylation by BCI in Dusp6 overexpressing cells was quantified by Kolmogorov-Smirnov (KS) statistics as described previously using DUSP-transfected and vehicle treated control wells26. One thousand individual cells were gated for Dusp-Myc expression based on c-Myc immunostaining and analyzed for ERK phosphorylation. […] To quantify restoration of Erk phosphorylation in the Dusp expressing cells after compound treatment, KS values for each condition were normalized to the average KS value from four wells transfected with Dusp1 or Dusp6 and treated with vehicle. […]

[1] = system: FGF signaling (Tg(Dusp6:d2EGFP)pt6 reporter); assay: Transgenic zebrafish chemical screen, d2EGFP fluorescence; format: in vivo; details: for d2EGFP fluorescence in treated transgenic embryos: 24 hpf embryos, 6-8 hours, analogs even at four-fold higher concentrations
Experimental: Tg(dusp6:d2EGFP)pt6 embryos were obtained by natural crossings and incubated at 28.5° C. until they reached 24 hpf. Five transgenic embryos were placed into each well from a 96-well plate in 200 μl of E3, and a 0.5% DMSO solution was added along with compound from each library at 10 μM. The NCI diversity set (NCl/NIH), the Natural Products library (MicroSource Discovery Systems Inc.) and Phosphatase targeted set (Chembridge) were screened in this study. (E)-2-Benzylidene-3-(cyclohexylamino)-2,3-dihydro-1H-inden-1-one (BCI; also known as NSC150117) was identified as a compound that enhanced fluorescence in treated transgenic embryos. Treated embryos were photographed under the same settings for exposure, gain and magnification for each picture using a MZFLIII (Leica) microscrope and fluorescent illumination for GFP using endow cube (Chroma Technology Corp., Rockingham, Vt.). Qimaging software and the Retiga Exi camera (Qimaging, Burnaby, BC Canada) were used to capture the images.
We previously described the generation of a transgenic zebrafish line, (Tg(Dusp6:d2EGFP)pt6) that expresses destabilized green fluorescent protein (d2EGFP) under the control of FGF signaling (Molina, G. A., et al. BMC Dev Biol 7, 62 (2007)). Using Tg(Dusp6:d2EGFP) embryos as a biosensor for FGF signaling, we screened over 5000 diverse compounds assembled from chemical libraries for small molecule modulators of this pathway. Five transgenic embryos at 24 hours post fertilization (hpf) were arrayed into each well of a 96-well plate containing test compounds at 10 μM. d2EGFP intensity in treated embryos was visually analyzed and compared to vehicle control (0.5% DMSO) after 6-8 hours. […] To confirm that BCI hyperactivated FGF signaling, we treated embryos prior to gastrulation (5 hpf), and we analyzed by whole mount in situ hybridization, the expression of ntl (zebrafish brachyury), a known FGF target gene (Latinkic, B. V. et al. Genes Dev 11, 3265-76 (1997)). […] We next determined the BCI structural features required to enhance FGF signaling. Two analogs, (E)-2-benzylidene-2,3-dihydro-1H-inden-1-one (BI) lacking the cyclohexylamino group, and 3-(cyclohexylamino)-2,3-dihydro-1H-inden-1-one (ICD) lacking the benzylidene group were synthesized).

Row | block of Dusp1 activity in chemical complementation assay (human Dusp1) | SMILES | IC50 (human Dusp1; 15 min compound, read-out: IC50, Dusp1 inhibition (pERK restoration)) [µM] | d2EGFP fluorescence in treated transgenic embryos [1] | d2EGFP expression in the MHB of Tg(Dusp6:d2EGFP); ace mutant embryos ([1]; BCI 10 μM, Fgf8-deficient embryos)
1 | – | O=C1/C(=C/c2ccccc2)C(NC2CCCCC2)c2ccccc21 (centres unmarked) [Compound 3, (E)-2-benzylidene-3-(cyclohexylamino)-2,3-dihydro-1H-inden-1-one] | 11.2 | enhanced d2EGFP fluorescence in a concentration-dependent manner | did not induce d2EGFP expression
2 | did not block | O=C1CC(NC2CCCCC2)c2ccccc21 (centres unmarked) [Compound 17, 3-(Cyclohexylamino)-2,3-dihydro-1H-inden-1-one] | – | inactive | –
